Legend:
Assay in all cases: relative viability (nuclei count vs DMSO), 5 days (fraction); higher = more cells survive
201T = tested on: 201T
Outline: (§1)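 Cells from lung cancer lines were seeded into 1536-well plates and, one day later, dosed by pin tool. Treatments were either a single drug or a fixed dose of an anchor drug with five library-drug doses (not always all listed) in √10 steps. After 5 days, nuclei were stained in a one-step fixation (final 0.05% Triton X-100, 1% formaldehyde, 1 ug/ml Hoechst) and counted on 4× images, and relative viability is the treated-to-vehicle nuclei ratio, as the median of duplicate plates.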

NCI-H441 = tested on: NCI-H441
Outline: as §1

PC-14 = tested on: PC-14
Outline: as §1

NCI-H520 = tested on: NCI-H520
Outline: as §1

LOU-NH91 = tested on: LOU-NH91
Outline: as §1

H3255 = tested on: H3255
Outline: as §1

NCI-H647 = tested on: NCI-H647
Outline: as §1

NCI-H3122 = tested on: NCI-H3122
Outline: as §1

NCI-H322M = tested on: NCI-H322M
Outline: as §1

NCI-H1793 = tested on: NCI-H1793
Outline: as §1

EPLC-272H = tested on: EPLC-272H
Outline: as §1

COR-L23 = tested on: COR-L23
Outline: as §1

UMC-11 = tested on: UMC-11
Outline: as §1

NCI-H2405 = tested on: NCI-H2405
Outline: as §1

NCI-H1650 = tested on: NCI-H1650
Outline: as §1

HCC-15 = tested on: HCC-15
Outline: as §1

NCI-H2170 = tested on: NCI-H2170
Outline: as §1

NCI-H1734 = tested on: NCI-H1734
Outline: as §1

NCI-H2023 = tested on: NCI-H2023
Outline: as §1

NCI-H2347 = tested on: NCI-H2347
Outline: as §1

O=c1cc(-c2cccc3c2Sc2ccccc2S3)oc(N2CCOCC2)c1 + CC1(C)CCC(c2ccc(Cl)cc2)=C(CN2CCN(c3ccc(C(=O)NS(=O)(=O)c4ccc(N[C@H](CCN5CCOCC5)CSc5ccccc5)c(S(=O)(=O)C(F)(F)F)c4)cc3)CC2)C1 [Navitoclax] (partner 0.5 µM)
relative viability (201T; first compound 0.08 µM): 1.15
relative viability (201T; first compound 0.253 µM): 1.2
relative viability (201T; first compound 0.8 µM): 1.23
relative viability (201T; first compound 2.53 µM): 1.2
relative viability (201T; first compound 8 µM): 1.15
relative viability (NCI-H441; first compound 0.08 µM): 1.14
relative viability (NCI-H441; first compound 0.253 µM): 0.909
relative viability (NCI-H441; first compound 0.8 µM): 0.523
relative viability (NCI-H441; first compound 2.53 µM): 0.776
relative viability (NCI-H441; first compound 8 µM): 0.762
relative viability (PC-14; first compound 0.08 µM): 1.04
relative viability (PC-14; first compound 0.253 µM): 1.31
relative viability (PC-14; first compound 0.8 µM): 1.01
relative viability (PC-14; first compound 2.53 µM): 0.946
relative viability (PC-14; first compound 8 µM): 1.05
relative viability (NCI-H520; first compound 0.08 µM): 0.992
relative viability (NCI-H520; first compound 0.253 µM): 1.1
relative viability (NCI-H520; first compound 0.8 µM): 1.04
relative viability (NCI-H520; first compound 2.53 µM): 0.993
relative viability (NCI-H520; first compound 8 µM): 1.2
relative viability (LOU-NH91; first compound 0.08 µM): 0.711
relative viability (LOU-NH91; first compound 0.253 µM): 0.68
relative viability (LOU-NH91; first compound 0.8 µM): 0.573
relative viability (LOU-NH91; first compound 2.53 µM): 0.59
relative viability (LOU-NH91; first compound 8 µM): 0.705
relative viability (H3255; first compound 0.08 µM): 0.55
relative viability (H3255; first compound 0.253 µM): 0.468
relative viability (H3255; first compound 0.8 µM): 0.474
relative viability (H3255; first compound 2.53 µM): 0.61
relative viability (H3255; first compound 8 µM): 0.698
relative viability (NCI-H647; first compound 0.08 µM): 1.2
relative viability (NCI-H647; first compound 0.253 µM): 1.15
relative viability (NCI-H647; first compound 0.8 µM): 1.12
relative viability (NCI-H647; first compound 2.53 µM): 1.04
relative viability (NCI-H647; first compound 8 µM): 1.37
relative viability (NCI-H3122; first compound 0.08 µM): 1.04
relative viability (NCI-H3122; first compound 0.253 µM): 1.01
relative viability (NCI-H3122; first compound 0.8 µM): 1.03
relative viability (NCI-H3122; first compound 2.53 µM): 1.02
relative viability (NCI-H3122; first compound 8 µM): 1.03
relative viability (NCI-H322M; first compound 0.08 µM): 1.2
relative viability (NCI-H322M; first compound 0.253 µM): 1.3
relative viability (NCI-H322M; first compound 0.8 µM): 1.15
relative viability (NCI-H322M; first compound 2.53 µM): 1.16
relative viability (NCI-H322M; first compound 8 µM): 1.05
relative viability (NCI-H1793; first compound 0.08 µM): 0.307
relative viability (NCI-H1793; first compound 0.253 µM): 0.515
relative viability (NCI-H1793; first compound 0.8 µM): 0.344
relative viability (NCI-H1793; first compound 2.53 µM): 0.362
relative viability (NCI-H1793; first compound 8 µM): 0.356
relative viability (EPLC-272H; first compound 0.08 µM): 1.09
relative viability (EPLC-272H; first compound 0.253 µM): 1.17
relative viability (EPLC-272H; first compound 0.8 µM): 1.17
relative viability (EPLC-272H; first compound 2.53 µM): 1.09
relative viability (EPLC-272H; first compound 8 µM): 1.2
relative viability (COR-L23; first compound 0.08 µM): 1.26
relative viability (COR-L23; first compound 0.253 µM): 1.4
relative viability (COR-L23; first compound 0.8 µM): 1.07
relative viability (COR-L23; first compound 2.53 µM): 1.2
relative viability (COR-L23; first compound 8 µM): 1.47
relative viability (UMC-11; first compound 0.08 µM): 0.326
relative viability (UMC-11; first compound 0.253 µM): 0.319
relative viability (UMC-11; first compound 0.8 µM): 0.32
relative viability (UMC-11; first compound 2.53 µM): 0.304
relative viability (UMC-11; first compound 8 µM): 0.353
relative viability (NCI-H2405; first compound 0.08 µM): 0.887
relative viability (NCI-H2405; first compound 0.253 µM): 0.761
relative viability (NCI-H2405; first compound 0.8 µM): 0.794
relative viability (NCI-H2405; first compound 2.53 µM): 0.825
relative viability (NCI-H2405; first compound 8 µM): 0.78
relative viability (NCI-H1650; first compound 0.08 µM): 1.05
relative viability (NCI-H1650; first compound 0.253 µM): 1.21
relative viability (NCI-H1650; first compound 0.8 µM): 1.12
relative viability (NCI-H1650; first compound 2.53 µM): 1.17
relative viability (NCI-H1650; first compound 8 µM): 1.38
relative viability (HCC-15; first compound 0.08 µM): 0.68
relative viability (HCC-15; first compound 0.253 µM): 0.866
relative viability (HCC-15; first compound 0.8 µM): 0.615
relative viability (HCC-15; first compound 2.53 µM): 0.66
relative viability (HCC-15; first compound 8 µM): 0.705
relative viability (NCI-H2170; first compound 0.08 µM): 0.693
relative viability (NCI-H2170; first compound 0.253 µM): 0.749
relative viability (NCI-H2170; first compound 0.8 µM): 0.642
relative viability (NCI-H2170; first compound 2.53 µM): 0.55
relative viability (NCI-H2170; first compound 8 µM): 0.519
relative viability (NCI-H1734; first compound 0.08 µM): 0.845
relative viability (NCI-H1734; first compound 0.253 µM): 1.13
relative viability (NCI-H1734; first compound 0.8 µM): 1.06
relative viability (NCI-H1734; first compound 2.53 µM): 0.818
relative viability (NCI-H1734; first compound 8 µM): 1.02
relative viability (NCI-H2023; first compound 0.08 µM): 1.04
relative viability (NCI-H2023; first compound 0.253 µM): 1.12
relative viability (NCI-H2023; first compound 0.8 µM): 1.04
relative viability (NCI-H2023; first compound 2.53 µM): 0.943
relative viability (NCI-H2023; first compound 8 µM): 1.02
relative viability (NCI-H2347; first compound 0.08 µM): 0.855
relative viability (NCI-H2347; first compound 0.253 µM): 1.08
relative viability (NCI-H2347; first compound 0.8 µM): 0.799
relative viability (NCI-H2347; first compound 2.53 µM): 0.839
relative viability (NCI-H2347; first compound 8 µM): 0.969
